Tests used:
[1] = system: SHL and cholesterol dehydrogenase; experiment: Two-enzyme system: SHL and cholesterol dehydrogenase; type: biochemical; settings: Compound C 10 μM
Protocol: (§1) ^1H NMR and ^13C NMR spectrums were obtained by Bruker AMX-500 spectrophotometer wherein chemical shift values were expressed in ppm relative to tetramethylsilane (δ unit); fluorescence intensity was measured by using a fluorescence-grade quartz cuvette and a spectrofluorometer, i.e. Horiba Jobin Yvon Fluoromax-4. The other chemicals are purchased from Acros, Aldrich, TCI or Sigma Chemical corporations and directly used without purification. […] Chem. Soc. Jp. 1985, 58, 731; the entire contents thereof are incorporated herein by reference. SHL is obtained from GDS Technology Inc. (USA). D-3-hydroxybutyric acid dehydrogenase is purchased from TOYOBO (Product Code: HBD-301). Cholesterol dehydrogenase is purchased from Genzyme Corp. All measurements were performed in 50 mM Tris-HCl (TRIZMA Base, Tris, pH8). The latent fluorophore is synthesized in DMSO and should be added to a Tris-HCl buffer before use to make the concentration of DMSO not exceed 0.1% (v/v). […]
(§2) The measurement of fluorescence was performed at an excitation wavelength λex of 500 nm and an emission wavelength λem of 595 nm. […] The measured fluorescence intensity after subtraction of baseline (concentration of the biochemical molecule to be tested is zero) intensity therefrom was plotted versus the concentration of the biochemical molecule to be tested.

[2] = Latent fluorophore kept in SHL alone, NADH alone or Tris-HCl buffer (background fluorescence / stability); type: physicochemical; settings: 20 μM
Protocol: (§3) ^1H NMR and ^13C NMR spectrums were obtained by Bruker AMX-500 spectrophotometer wherein chemical shift values were expressed in ppm relative to tetramethylsilane (δ unit); fluorescence intensity was measured by using a fluorescence-grade quartz cuvette and a spectrofluorometer, i.e. Horiba Jobin Yvon Fluoromax-4. The other chemicals are purchased from Acros, Aldrich, TCI or Sigma Chemical corporations and directly used without purification. […] Chem. Soc. Jp. 1985, 58, 731; the entire contents thereof are incorporated herein by reference. SHL is obtained from GDS Technology Inc. (USA). D-3-hydroxybutyric acid dehydrogenase is purchased from TOYOBO (Product Code: HBD-301). Cholesterol dehydrogenase is purchased from Genzyme Corp. All measurements were performed in 50 mM Tris-HCl (TRIZMA Base, Tris, pH8). The latent fluorophore is synthesized in DMSO and should be added to a Tris-HCl buffer before use to make the concentration of DMSO not exceed 0.1% (v/v).
(§4) The fluorescence profile of Compound C was analyzed in the presence of SHL and NADH in an aerobic environment. […] However, in case that Compound C was kept in a solution containing both 1 unit of SHL and 1 mM NADH at 37 °C, the fluorescence intensity of Compound B increases 57 times in 90 minutes, as shown in FIG. 1 (dotted line representing the baseline).

[3] = target: T1, Salicylate hydroxylase (SHL) (Pseudomonas putida, UniProt P23262); experiment: Fluorescence profile of the latent fluorophore in the presence of SHL and NADH, aerobic; type: biochemical
T1 construct: purchased GDS Technology Inc. (USA)
T1 sequence (P23262 1-434): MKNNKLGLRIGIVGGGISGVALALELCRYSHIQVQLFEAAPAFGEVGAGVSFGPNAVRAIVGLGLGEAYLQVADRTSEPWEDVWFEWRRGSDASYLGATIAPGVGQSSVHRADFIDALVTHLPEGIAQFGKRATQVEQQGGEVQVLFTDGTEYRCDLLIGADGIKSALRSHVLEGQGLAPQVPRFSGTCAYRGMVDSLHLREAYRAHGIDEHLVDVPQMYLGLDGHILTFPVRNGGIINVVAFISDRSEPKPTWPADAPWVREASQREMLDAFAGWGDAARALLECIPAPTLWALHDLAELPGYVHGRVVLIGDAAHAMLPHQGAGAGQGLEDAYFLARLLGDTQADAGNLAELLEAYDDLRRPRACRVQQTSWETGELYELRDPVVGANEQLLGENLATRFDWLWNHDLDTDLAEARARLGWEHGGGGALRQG
Protocol: as §3, §4

[4] = system: SHL and 3-hydroxybutyric acid dehydrogenase; experiment: Two-enzyme system: SHL and 3-hydroxybutyric acid dehydrogenase; type: biochemical; settings: Compound C 10 μM; substrate 3-hydroxybutyric acid
Protocol: as §1, §2

[5] = cited from earlier work
[6] = target: T1, Salicylate hydroxylase (SHL); experiment: Effect of salicylic acid on the fluorescence intensity (SHL, Compound C, NADH); type: biochemical; settings: salicylic acid added to SHL, Compound C and NADH, aerobic; fluorescence decreased with increasing concentration
Protocol: as §3

SMILES | fluorescence intensity after addition of the substrate [1] | fluorescence intensity, kept in solution of NADH alone ([2]; kept even for several months) | fluorescence intensity, kept in solution of SHL alone ([2]; kept even for several months) | fluorescence intensity, kept in Tris-HCl buffer solution ([2]; pH 8, kept even for several months) | time until fluorescence could be detected ([3]; 1 unit SHL and 1 mM NADH added to Tris-HCl buffer containing Compound C) | increase of fluorescence intensity ([3]; Compound C in solution with 1 unit SHL and 1 mM NADH, 37 °C, in 90 minutes) | fluorescence intensity, only SHL added ([3]; only SHL added to Tris-HCl buffer containing Compound C, after 10 minutes) | fluorescence intensity after addition of the substrate [4] | blood level that may be fatal [5] | conversion of Compound C to a fluorogenic compound [6]
N#Cc1c(-c2nc3ccccc3s2)c(=O)oc2cc(OCc3ccc(C(=O)O)c(O)c3)ccc12 [Compound C] | significantly increased | near the baseline | near the baseline | near the baseline | within several seconds | 57 times | near the baseline | significantly increased |  | 
O=C(O)c1ccccc1O [salicylic acid] |  |  |  |  |  |  |  |  | above 4.3 mM | inhibited

Source: US8691980B2 (National Taipei University of Technology, priority 2011, dated 2014)
